Results reported in ChEMBL document CHEMBL4819101, “Design, synthesis and molecular docking studies of thymol based 1,2,3-triazole hybrids as thymidylate synthase inhibitors and apoptosis inducers against breast cancer cells” (Bioorg Med Chem, 2021).

Tests used:
[1] = tested on: MCF7; experiment: cells; conditions: Homo sapiens, MCF7, 72 h
Description: Cytotoxicity against human MCF7 cells assessed as cell growth inhibition incubated for 72 hrs by MTT assay

[2] = tested on: MDA-MB-231; experiment: cells; conditions: Homo sapiens, MDA-MB-231, 72 h
Description: Cytotoxicity against human MDA-MB-231 cells assessed as cell growth inhibition incubated for 72 hrs by MTT assay

[3] = tested on: MCF7; experiment: Potency index, ratio of 5-fluorouracil IC50 to test compound IC50 for cytotoxicity against human MCF7 cells assessed as cell growth inhibition incubated for 72 hrs by MTT assay; format: functional
[4] = target: T1, Thymidylate synthase (Homo sapiens, UniProt P04818); experiment: Inhibition of thymidylate synthase (unknown origin)
T1 sequence (P04818 whole entry): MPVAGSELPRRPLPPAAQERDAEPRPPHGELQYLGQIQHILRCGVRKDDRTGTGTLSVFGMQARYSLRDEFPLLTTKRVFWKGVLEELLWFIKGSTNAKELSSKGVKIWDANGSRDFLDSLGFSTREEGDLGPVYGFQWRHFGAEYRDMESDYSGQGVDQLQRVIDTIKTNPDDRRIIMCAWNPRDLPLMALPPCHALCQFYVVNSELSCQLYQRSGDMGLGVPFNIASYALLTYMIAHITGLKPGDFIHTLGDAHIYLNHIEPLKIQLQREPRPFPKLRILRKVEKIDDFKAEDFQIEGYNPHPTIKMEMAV

[5] = tested on: MDA-MB-231; experiment: Potency index, ratio of tamoxifen IC50 to test compound IC50 for cytotoxicity against human MDA-MB-231 cells assessed as cell growth inhibition incubated for 72 hrs by MTT assay; format: functional
[6] = target: T1, Thymidylate synthase; experiment: Inhibition of human thymidylate synthase expressed in Escherichia coli using 6R,S-tetrahydrofolate and dUMP as substrate by spectrophotometric analysis
[7] = tested on: MDA-MB-231; experiment: Potency index, ratio of 5-fluorouracil IC50 to test compound IC50 for cytotoxicity against human MDA-MB-231 cells assessed as cell growth inhibition incubated for 72 hrs by MTT assay; format: functional
[8] = tested on: HEK293; experiment: Cytotoxicity against human HEK293 cells assessed as cell growth inhibition incubated for 72 hrs by MTT assay; format: cell-based; conditions: HEK293, 72 h
[9] = tested on: MCF7; experiment: Induction of cell cycle arrest in human MCF7 cells assessed as increase in accumulation at G2/M phase at 10 uM incubated for 48 hrs by PI staining based flow cytometry analysis relative to control; format: functional
[10] = tested on: MCF7; experiment: Induction of cell cycle arrest in human MCF7 cells assessed as accumulation at sub-G1 phase at 10 uM incubated for 48 hrs by PI staining based flow cytometry analysis (reference value: 3.7 %); format: functional
[11] = tested on: MCF7; experiment: Induction of apoptosis in human MCF7 cells assessed as total apoptotic cells at 10 uM incubated for 48 hrs by annexin-V-FITC and PI staining based flow cytometry analysis (reference value: 8.3 %); format: functional

Compound | IC50 [1] [µM] | IC50 [2] [µM] | also measured
Cc1ccc(C(C)C)c(OCc2cn(-c3ccccc3)nn2)c1 | 29.9 | 45.1 | –
Cc1ccc(C(C)C)c(OCc2cn(-c3ccccc3Cl)nn2)c1 | 15.6 | 26.6 | Ratio IC50 [3]: 1.2
CCOC(=O)C1CCC(c2ccccc2)N1C(=O)c1cn(CCCNC(=O)C(F)(F)F)nn1 (stereo not given) | – | – | IC50 [4]: 57 nM
Cc1cccc(-n2cc(COc3cc(C)ccc3C(C)C)nn2)c1 | 28.1 | 31.2 | –
Cc1ccc(C(C)C)c(OCc2cn(-c3ccc(F)cc3)nn2)c1 | 22.1 | 32.6 | –
Cc1ccc(C(C)C)c(OCc2cn(-c3cccc(C(=O)O)c3)nn2)c1 | 10.3 | 11.4 | Ratio IC50 [5]: 1.3; IC50 [6]: 4.27 µM; Ratio IC50 [3]: 1.95; Ratio IC50 [7]: 2.2
Cc1ccc(C(C)C)c(OCc2cn(-c3cccc(Cl)c3)nn2)c1 | 32.1 | 45.2 | –
Cc1ccc(C(C)C)c(OCc2cn(-c3cccc4c(-n5cc(COc6cc(C)ccc6C(C)C)nn5)cccc34)nn2)c1 | 18.1 | 22.1 | –
Cc1ccc(C(C)C)c(OCc2cn(-c3ccc(O)cc3)nn2)c1 | 45.4 | 30.4 | –
COc1ccc(-n2cc(COc3cc(C)ccc3C(C)C)nn2)cc1 | 25.4 | 45.3 | –
Cc1ccc(C(C)C)c(OCc2cn(-c3ccccc3C)nn2)c1 | 6.17 | 10.5 | Ratio IC50 [5]: 1.42; IC50 [8]: > 50 µM; IC50 [6]: 2.21 µM; Activity [9]: 37.3%; Activity [10]: 21.4%; Activity [11]: 29.4%; Ratio IC50 [3]: 3.2
Cc1ccc(C(C)C)c(OCc2cn(-c3ccc([N+](=O)[O-])cc3)nn2)c1 | 32.2 | 41 | –
O=c1[nH]cc(F)c(=O)[nH]1 [FLUOROURACIL] | 20.1 | 25.3 | –
Nc1nc2[nH]cc(CCc3ccc(C(=O)N[C@@H](CCC(=O)O)C(=O)O)cc3)c2c(=O)[nH]1 [PEMETREXED] | – | – | IC50 [6]: 5.39 µM
CC/C(=C(\c1ccccc1)c1ccc(OCCN(C)C)cc1)c1ccccc1 [TAMOXIFEN] | 5.62 | 15 | –
